Molecules are shown by their SMILES.

The data set is described as follows: Pre-formulation telbivudine stability versus pH at elevated temperature. To be noted: investigated pH 2-9, 50° C., from assay and thymine content. Format: physicochemical. Here is the method:
During pre-formulation, telbivudine stability is investigated within a range of pH from 2-9, at elevated temperature 50° C. […] The pH of the oral solution is a highly relevant parameter, due to the influence pH on the retardation of microbial growth in the solution during storage.

As to `Cc1cn([C@@H]2C[C@@H](O)[C@H](CO)O2)c(=O)[nH]c1=O` [telbivudine, β-L-thymidine/2′-deoxy-L-thymidine], the “pH range optimal for drug substance stability” value is given as 3-9.

Values taken from patent US8445457B2, “Oral pharmaceutical solutions containing telbivudine” (Novartis AG, priority 2007, dated 2013).
